Measured values as given in US10294202B2, “Pyrrolidinones as herbicides” (FMC Corporation, priority 2013, dated 2019).

Tests used:
barnyardgrass [1] = experiment: Test C flooded paddy test; type: in vivo, Echinochloa crus-galli; conditions: Flood
Text: (§1) Plant species in the flooded paddy test consisted of rice (Oryza sativa), sedge, umbrella (small-flower umbrella sedge, Cyperus difformis), ducksalad (Heteranthera limosa), and barnyardgrass (Echinochloa crus-galli) grown to the 2-leaf stage for testing. At time of treatment, test pots were flooded to 3 cm above the soil surface, treated by application of test compounds directly to the paddy water, and then maintained at that water depth for the duration of the test. Treated plants and controls were maintained in a greenhouse for 13 to 15 days, after which time all species were compared to controls and visually evaluated. Plant response ratings, summarized in Table C, are based on a scale of 0 to 100 where 0 is no effect and 100 is complete control. A dash (-) response means no test result.

wheat = experiment: Test A pre-/postemergence herbicide test; type: in vivo, Triticum aestivum; conditions: for Wheat plant response rating: Preemergence, visual rating on 0 to 100 scale (0 no effect, 100 complete control)
Outline: (§2)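 Formulated compound (non-phytotoxic solvent, surfactant) sprayed pre- onto soil of seeded loam/sand pots or post- onto seedlings at 1–2 leaves; ~10 d greenhouse; 0–100 visual control rating versus untreated.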

morningglory = experiment: Test A pre-/postemergence herbicide test; type: in vivo, Ipomoea spp.; conditions: for Morningglory plant response rating: Preemergence, visual rating on 0 to 100 scale (0 no effect, 100 complete control)
Outline: as §2

rice = experiment: Test C flooded paddy test; type: in vivo, Oryza sativa; conditions: Flood
Text: as §1

sedge, umbrella = experiment: Test C flooded paddy test; type: in vivo, Cyperus difformis; conditions: Flood
Text: as §1

pigweed = experiment: Test A pre-/postemergence herbicide test; type: in vivo, Amaranthus retroflexus; conditions: for Pigweed plant response rating: Preemergence, visual rating on 0 to 100 scale (0 no effect, 100 complete control)
Outline: as §2

corn = experiment: Test A pre-/postemergence herbicide test; type: in vivo, Zea mays; conditions: for Corn plant response rating: Preemergence, visual rating on 0 to 100 scale (0 no effect, 100 complete control)
Outline: as §2

ducksalad = experiment: Test C flooded paddy test; type: in vivo, Heteranthera limosa; conditions: Flood
Text: as §1

velvetleaf = experiment: Test A pre-/postemergence herbicide test; type: in vivo, Abutilon theophrasti; conditions: for Velvetleaf plant response rating: Preemergence, visual rating on 0 to 100 scale (0 no effect, 100 complete control)
Outline: as §2

crabgrass, large = experiment: Test A pre-/postemergence herbicide test; type: in vivo, Digitaria sanguinalis; conditions: for Crabgrass, Large plant response rating: Preemergence, visual rating on 0 to 100 scale (0 no effect, 100 complete control)
Outline: as §2

giant foxtail = experiment: Test A pre-/postemergence herbicide test; type: in vivo, Setaria faberii; conditions: for Foxtail, Giant plant response rating: Preemergence, visual rating on 0 to 100 scale (0 no effect, 100 complete control)
Outline: as §2

barnyardgrass [2] = experiment: Test A pre-/postemergence herbicide test; type: in vivo, Echinochloa crus-galli; conditions: for Barnyardgrass plant response rating: Preemergence, visual rating on 0 to 100 scale (0 no effect, 100 complete control)
Outline: as §2

[3] = 31 g ai/ha, scale of 0 to 100 where 0 is no effect and 100 is complete control, 13 to 15 days
[4] = 62 g ai/ha, scale of 0 to 100 where 0 is no effect and 100 is complete control, 13 to 15 days
[5] = 125 g ai/ha, scale of 0 to 100 where 0 is no effect and 100 is complete control, 13 to 15 days
[6] = Postemergence, 125 g ai/ha, 0 to 100 scale, 0 no effect, 100 complete control
[7] = Postemergence, 500 g ai/ha, 0 to 100 scale (0 no effect, 100 complete control)
[8] = preemergence, 500 g ai/ha, 0 to 100 scale
[9] = preemergence, 500 g ai/ha, 0 to 100 scale (0 no effect, 100 complete control)

CC1NC(=O)C(C(=O)Nc2ccccc2C(F)(F)F)C1c1ccc(F)c(F)c1 (mixture of isomers) [Compound 10]
Plant response rating, Barnyardgrass (barnyardgrass [1]; [3]): 0
Plant response rating, Barnyardgrass (barnyardgrass [1]; [4]): 0
Plant response rating, Barnyardgrass (barnyardgrass [1]; [5]): 0
Plant response rating, Barnyardgrass (barnyardgrass [1]; 250 g ai/ha, scale 0 to 100): 0
Plant response rating, Wheat (wheat; [6]): 0
Plant response rating, Wheat (wheat; [7]): 0
Wheat plant response rating (wheat; 125 g ai/ha): 0
Plant response rating, Wheat (wheat; [8]): 0
Plant response rating, Morningglory (morningglory; [6]): 0
Plant response rating, Morningglory (morningglory; [7]): 0
Morningglory plant response rating (morningglory; 125 g ai/ha): 0
Plant response rating, Morningglory (morningglory; [8]): 0
Plant response rating, Rice (rice; [3]): 0
Plant response rating, Rice (rice; [4]): 0
Plant response rating, Rice (rice; [5]): 0
Plant response rating, Rice (rice; 250 g ai/ha, scale 0 to 100): 0
Plant response rating, Sedge, Umbrella (sedge, umbrella; [3]): 0
Plant response rating, Sedge, Umbrella (sedge, umbrella; [4]): 0
Plant response rating, Sedge, Umbrella (sedge, umbrella; [5]): 0
Plant response rating, Sedge, Umbrella (sedge, umbrella; 250 g ai/ha, scale 0 to 100): 0
Plant response rating, Pigweed (pigweed; [6]): 0
Plant response rating, Pigweed (pigweed; [7]): 0
Pigweed plant response rating (pigweed; 125 g ai/ha): 0
Plant response rating, Pigweed (pigweed; [8]): 0
Plant response rating, Corn (corn; [6]): 0
Plant response rating, Corn (corn; [7]): 0
Corn plant response rating (corn; 125 g ai/ha): 0
Plant response rating, Corn (corn; [8]): 0
Plant response rating, Ducksalad (ducksalad; [3]): 0
Plant response rating, Ducksalad (ducksalad; [4]): 0
Plant response rating, Ducksalad (ducksalad; [5]): 0
Plant response rating, Ducksalad (ducksalad; 250 g ai/ha, scale 0 to 100): 0
Plant response rating, Velvetleaf (velvetleaf; [6]): 0
Plant response rating, Velvetleaf (velvetleaf; [7]): 0
Velvetleaf plant response rating (velvetleaf; 125 g ai/ha): 0
Plant response rating, Velvetleaf (velvetleaf; [8]): 0
Plant response rating, Crabgrass, Large (crabgrass, large; [6]): 20
Plant response rating, Crabgrass, Large (crabgrass, large; [7]): 60
Crabgrass, Large plant response rating (crabgrass, large; 125 g ai/ha): 90
Plant response rating, Crabgrass, Large (crabgrass, large; [8]): 90
Plant response rating, Foxtail, Giant (giant foxtail; [6]): 0
Plant response rating, Foxtail, Giant (giant foxtail; [7]): 30
Foxtail, Giant plant response rating (giant foxtail; 125 g ai/ha): 60
Plant response rating, Foxtail, Giant (giant foxtail; [8]): 90
Plant response rating, Barnyardgrass (barnyardgrass [2]; [6]): 0
Plant response rating, Barnyardgrass (barnyardgrass [2]; [7]): 40
Barnyardgrass plant response rating (barnyardgrass [2]; 125 g ai/ha): 0
Plant response rating, Barnyardgrass (barnyardgrass [2]; [9]): 40

O=C1NCC(c2cccc(F)c2)C1C(=O)Nc1ccccc1F (racemic) [Compound 1]
Plant response rating, Barnyardgrass (barnyardgrass [1]; [3]): 0
Plant response rating, Barnyardgrass (barnyardgrass [1]; [4]): 0
Plant response rating, Barnyardgrass (barnyardgrass [1]; [5]): 0
Plant response rating, Barnyardgrass (barnyardgrass [1]; 250 g ai/ha, scale 0 to 100): 0
Plant response rating, Wheat (wheat; [7]): 0
Wheat plant response rating (wheat; 125 g ai/ha): 0
Plant response rating, Wheat (wheat; [8]): 0
Plant response rating, Morningglory (morningglory; [7]): 0
Morningglory plant response rating (morningglory; 125 g ai/ha): 0
Plant response rating, Morningglory (morningglory; [8]): 0
Plant response rating, Rice (rice; [3]): 0
Plant response rating, Rice (rice; [4]): 0
Plant response rating, Rice (rice; [5]): 0
Plant response rating, Rice (rice; 250 g ai/ha, scale 0 to 100): 0
Plant response rating, Sedge, Umbrella (sedge, umbrella; [3]): 0
Plant response rating, Sedge, Umbrella (sedge, umbrella; [4]): 0
Plant response rating, Sedge, Umbrella (sedge, umbrella; [5]): 0
Plant response rating, Sedge, Umbrella (sedge, umbrella; 250 g ai/ha, scale 0 to 100): 0
Plant response rating, Pigweed (pigweed; [7]): 0
Pigweed plant response rating (pigweed; 125 g ai/ha): 0
Plant response rating, Pigweed (pigweed; [8]): 0
Plant response rating, Corn (corn; [6]): 0
Plant response rating, Corn (corn; [7]): 0
Corn plant response rating (corn; 125 g ai/ha): 0
Plant response rating, Corn (corn; [8]): 20
Plant response rating, Ducksalad (ducksalad; [3]): 0
Plant response rating, Ducksalad (ducksalad; [4]): 0
Plant response rating, Ducksalad (ducksalad; [5]): 0
Plant response rating, Ducksalad (ducksalad; 250 g ai/ha, scale 0 to 100): 0
Plant response rating, Velvetleaf (velvetleaf; [7]): 0
Velvetleaf plant response rating (velvetleaf; 125 g ai/ha): 0
Plant response rating, Velvetleaf (velvetleaf; [8]): 0
Plant response rating, Crabgrass, Large (crabgrass, large; [6]): 30
Plant response rating, Crabgrass, Large (crabgrass, large; [7]): 80
Crabgrass, Large plant response rating (crabgrass, large; 125 g ai/ha): 90
Plant response rating, Crabgrass, Large (crabgrass, large; [8]): 90
Plant response rating, Foxtail, Giant (giant foxtail; [6]): 20
Plant response rating, Foxtail, Giant (giant foxtail; [7]): 60
Foxtail, Giant plant response rating (giant foxtail; 125 g ai/ha): 70
Plant response rating, Foxtail, Giant (giant foxtail; [8]): 90
Plant response rating, Barnyardgrass (barnyardgrass [2]; [6]): 50
Plant response rating, Barnyardgrass (barnyardgrass [2]; [7]): 80
Barnyardgrass plant response rating (barnyardgrass [2]; 125 g ai/ha): 30
Plant response rating, Barnyardgrass (barnyardgrass [2]; [9]): 90
